Patent publication US9486457B2, “Use of cinnabarinic acid as a modulator of immune responses in autoimmune disorders” (The Regents of the University of California, priority 2010, dated 2016)
“Also recorded” adds a separate entry of the source.

Assays:
[1] = test system: naïve (CD45RA+CCR7+CD95−CD25−) CD4+ T cells; assay: Foxp3 induction in stimulated naïve CD4+ T cells; type: cell-based, human
Description: FIG. 9: The synthetic 3-HAA analogue 3,4 DAA (Tranilast) is an AhR antagonist and promotes the induction of Foxp3 by stimulated CD4+ T cells. (A) 3,4 DAA shares some structural similarities to 3-HAA (highlighted region).
Therefore we asked whether T cells treated with 3,4 DAA might be prompted to differentiate into Treg cells through upregulation of the transcription factor Foxp3 (26).

human AHR protein = target: T1, human AHR protein (Homo sapiens, UniProt P35869); assay: Displacement of TCDD binding to in vitro translated human AHR protein; details: cell-free
T1 sequence (P35869 11-848): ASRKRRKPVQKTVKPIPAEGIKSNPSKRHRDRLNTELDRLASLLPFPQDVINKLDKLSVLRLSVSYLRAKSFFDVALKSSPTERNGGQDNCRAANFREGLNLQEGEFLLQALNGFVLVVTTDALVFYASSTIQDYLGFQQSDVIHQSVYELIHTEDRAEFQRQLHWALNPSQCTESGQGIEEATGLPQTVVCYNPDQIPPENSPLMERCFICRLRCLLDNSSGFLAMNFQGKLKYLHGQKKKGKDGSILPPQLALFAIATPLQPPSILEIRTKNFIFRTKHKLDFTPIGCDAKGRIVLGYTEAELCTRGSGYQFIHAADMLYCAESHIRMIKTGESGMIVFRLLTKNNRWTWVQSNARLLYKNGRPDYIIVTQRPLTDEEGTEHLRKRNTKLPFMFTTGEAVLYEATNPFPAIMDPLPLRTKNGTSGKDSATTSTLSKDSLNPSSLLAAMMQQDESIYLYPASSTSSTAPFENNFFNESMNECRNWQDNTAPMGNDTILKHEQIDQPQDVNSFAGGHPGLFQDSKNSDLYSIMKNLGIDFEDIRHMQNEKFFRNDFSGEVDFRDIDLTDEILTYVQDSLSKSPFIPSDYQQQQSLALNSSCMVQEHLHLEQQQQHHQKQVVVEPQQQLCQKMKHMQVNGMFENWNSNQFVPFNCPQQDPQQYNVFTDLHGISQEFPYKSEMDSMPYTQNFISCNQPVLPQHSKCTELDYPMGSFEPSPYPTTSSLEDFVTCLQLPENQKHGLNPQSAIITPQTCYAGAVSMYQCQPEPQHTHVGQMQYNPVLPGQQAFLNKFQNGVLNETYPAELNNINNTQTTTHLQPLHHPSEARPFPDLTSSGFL
Description: (§1) We performed a precursory screen of all tryptophan metabolites including both 3-HKA and 3-HAA to bind to and act as agonists or antagonists of the AHR using two separate assays. First we examined the ability of 3-HKyn, 3-HAA, and PA to displace TCDD binding to the human AHR protein in vitro (20). […] We also measured AHR activation using a mouse hepatoma cell line (H1G1) that stably expresses a green fluorescent protein (GFP) reporter construct downstream of a series of dioxin responsive elements (FIG. 7A) (21).

AHR = target: T2, AHR (Mus musculus, UniProt P30561); assay: AHR-responsive (dioxin responsive element) GFP reporter assay in H1G1 mouse hepatoma cells; type: cell-based; details: for AHR agonist activity (activation of AHR-responsive reporter): agonist mode; for AHR antagonist activity (block of AHR activation by TCDD): antagonist mode, co-treatment with TCDD, H1G1 cells
T2 construct: murine hepatoma cell line stably transfected with an AhR-responsive (AhR-eGFP) reporter construct; endogenous in cells
T2 sequence (P30561 10-848): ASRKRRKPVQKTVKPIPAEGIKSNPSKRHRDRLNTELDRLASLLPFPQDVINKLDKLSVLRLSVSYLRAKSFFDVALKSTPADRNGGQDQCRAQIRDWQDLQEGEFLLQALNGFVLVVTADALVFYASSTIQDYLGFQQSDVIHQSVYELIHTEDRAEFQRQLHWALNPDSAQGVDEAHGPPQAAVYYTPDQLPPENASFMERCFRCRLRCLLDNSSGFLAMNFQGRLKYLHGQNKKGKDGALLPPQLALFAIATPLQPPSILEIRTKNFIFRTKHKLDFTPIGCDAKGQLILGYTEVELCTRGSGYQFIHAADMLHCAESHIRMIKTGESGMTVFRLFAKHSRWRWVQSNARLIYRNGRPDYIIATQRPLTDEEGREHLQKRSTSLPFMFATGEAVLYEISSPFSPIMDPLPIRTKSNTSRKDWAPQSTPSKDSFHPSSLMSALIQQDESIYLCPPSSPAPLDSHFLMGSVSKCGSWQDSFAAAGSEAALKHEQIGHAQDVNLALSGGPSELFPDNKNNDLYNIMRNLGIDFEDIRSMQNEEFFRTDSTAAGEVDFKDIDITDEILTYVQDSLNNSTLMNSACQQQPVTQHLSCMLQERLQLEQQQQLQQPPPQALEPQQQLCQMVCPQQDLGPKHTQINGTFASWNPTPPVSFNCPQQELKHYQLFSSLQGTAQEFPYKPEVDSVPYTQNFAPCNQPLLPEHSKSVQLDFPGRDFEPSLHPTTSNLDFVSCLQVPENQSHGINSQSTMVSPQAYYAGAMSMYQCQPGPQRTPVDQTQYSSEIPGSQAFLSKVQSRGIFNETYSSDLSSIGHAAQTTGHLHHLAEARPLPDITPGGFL
Description: as §1

human naïve CD4+ T cells = assay: IL-22 induction in cultured human naïve CD4+ T cells stimulated with anti-CD3/anti-CD28 under Th17 polarizing conditions; type: cell-based; details: CA 25 μM in FIG. 8D
Description: This is AHR dependent as inclusion of an AHR antagonist fully abrogated effect.
FIG. 8: CA is an endogenous AhR agonist generated by oxidative dimerization of 3-HAA. (A) An alternative pathway of 3-HAA metabolism leads to the generation of CA either by non-enzymatic (oxidation) or enzymatic (laccase, ceruloplasmin) processes. CA is structurally similar to the synthetic AhR ligand TCDD. […] Data are representative of three similar experiments.

[2] = test system: stimulated human CD4+ T cells; assay: IL-22 expression by CD4+ T cells in stimulated human PBMCs / T cells; type: cell-based; details: for IL-22 expression by CD4+ T cells (Th22 differentiation): stimulated human PBMCs / T cells, 100 μM for 3-HKyn and 3-HAA in FIG. 6A
Description: FIG. 6: 3-HKyn and 3-HAA promote IL-22 expression by stimulated human CD4+ T cells. […] (C) IL-22 induction by 3-HAA is blocked by inhibition of the AhR pathway.
This is highlighted by the observation that AHR−/− mice retain the ability to generate some Th17 cells, but are incapable of generating cells that express IL-22 (16-18). […] To screen for the ability of tryptophan metabolites generated downstream of IDO to activate the AHR, we stimulated human T cells in vitro in the presence of different tryptophan metabolites (3-Hydroxykynurenine (3-HKA), 3-Hydroxyanthranilic Acid (3-HAA), Picolinic Acid (PA), and Quinolinic Acid (QA)) to assess whether any promoted the expansion of CD4+ T cells secreting IL-22. […] To determine whether the induction of IL-22 within this population was dependent upon AHR activation, we next stimulated human T cells in the presence or absence of a potent AHR antagonist (CH-223191) and monitored the induction of IL-22.

[3] = test system: experimental allergic encephalomyelitis (EAE); details: literature reports (refs 15, 25 as cited in text); cited from earlier work
[4] = test system: stimulated human CD4+ T cells; details: literature (ref 19); cited from earlier work

Q: Which results are given for `Nc1c(O)cccc1C(=O)O` [3-HAA, 3-Hydroxyanthranilic Acid]?
A: Foxp3 expression (frequency of CD4+Foxp3+ T cells) ([1]; stimulated naïve CD4+ T cells in vitro): promotes Foxp3 upregulation but to a lesser extent; displacement / inhibition of TCDD binding to human AHR (human AHR protein): modest binding of 3-HAA only at very high concentrations; AHR agonist activity (activation of AHR-responsive reporter) (AHR): modest increase in AHR activity using 3-HAA as an agonist, this failed to reach significance; also recorded: minimal activation of the AhR; also recorded: no activity in short-term assays; IL-22 induction (human naïve CD4+ T cells): only had minimal effects; expansion of Th22 cells ([2]; different donors): ≥ 2 fold; IL-22 expression by CD4+ T cells (Th22 differentiation) [2]: able to promote the differentiation of Th22 cells; also recorded: leads to the expansion of a population of cells expression the cytokine IL-22; also recorded: promotes IL-22 expression in dose-dependent manner

Q: For `O=C(O)c1ccccn1` [PA, Picolinic Acid], which “displacement / inhibition of TCDD binding to human AHR” value (human AHR protein) is on record?
A: unable to measure any significant displacement

Q: What about the “AHR agonist activity (activation of AHR-responsive reporter)” value (from here on “AHR agonist activity”) (AHR) of the same compound?
A: none of the other metabolites (3-HKyn, PA, QA) were found to have any activity as agonists or antagonists

Q: And the “AHR antagonist activity (block of AHR activation by TCDD)” value (AHR)?
A: none of the other metabolites (3-HKyn, PA, QA) were found to have any activity as agonists or antagonists

Q: With `Clc1cc2c(cc1Cl)Oc1cc(Cl)c(Cl)cc1O2` [TCDD, 2,3,7,8-tetrachlorodibenzodioxin] as the compound, how does the “effect on EAE as previously reported” value [3] read?
A: protective

Q: Which “AHR agonist activity” value (AHR) does the source give for `O=C(O)c1cccnc1C(=O)O` [QA, Quinolinic Acid] here?
A: none of the other metabolites (3-HKyn, PA, QA) were found to have any activity as agonists or antagonists

Q: What about the “AHR antagonist activity (block of AHR activation by TCDD)” value (AHR) of the same compound?
A: none of the other metabolites (3-HKyn, PA, QA) were found to have any activity as agonists or antagonists

Q: With `NC(=O)c1ccc(-c2nc(-c3ccc4c(c3)OCO4)c(-c3ccccn3)[nH]2)cc1` [SB-431542] as the compound, how does the “reversal of Foxp3 upregulation by 3,4 DAA and 3-HAA” value ([1]; TGFβ signaling inhibitor added) read?
A: reversed the ability of 3,4 DAA and 3-HAA to upregulate Foxp3

Q: With `NCCc1c[nH]c2ccccc12` [Tryptamine, tryptamine] as the compound, how does the “AHR agonist activity” value (AHR) read?
A: positive control

Q: Which results are given for `O=Cc1c2c(cc3c1=Nc1ccccc1-3)=Nc1ccccc1-2` [FICZ, 6-formylindolo[3,2-b]carbazole]?
A: effect on EAE as previously reported [3]: increased disease severity; frequency of CD4+ T cells that produce IL-22 (Th22), as previously reported [4]: promoted a significant increase in the frequency of CD4+ T cells that produced IL-22

Q: For `Nc1c(C(=O)O)ccc(F)c1O` [4-F-3-HAA, 4-fluoro-3-hydroxythranilic acid], which “effect of HAAO inhibition on the ability of 3-HAA to induce IL-22” value ([2]; in the presence of different concentrations of 3-HAA) is on record?
A: stark increase in the ability of 3-HAA to induce IL-22

Q: Which results are given for `Cc1ccccc1N=Nc1ccc(NC(=O)c2ccnn2C)c(C)c1` [CH-223191]?
A: AHR antagonist activity (block of AHR activation by TCDD) (AHR): potent antagonist; AHR antagonist activity (block of AHR activation by TCDD) (AHR; listed as CH223191): positive control; block of IL-22 induction by 3-HAA ([2]; AHR antagonist added with 3-HAA): significantly abolish IL-22 induction by 3-HAA

Q: Which results are given for `Nc1c(O)cccc1C(=O)CC(N)C(=O)O` (stereo not shown) [3-HKyn, 3-Hydroxykynurenine]?
A: displacement / inhibition of TCDD binding to human AHR (human AHR protein): unable to measure any significant displacement; AHR agonist activity (activation of AHR-responsive reporter) (AHR): none of the other metabolites (3-HKyn, PA, QA) were found to have any activity as agonists or antagonists; AHR antagonist activity (block of AHR activation by TCDD) (AHR): none of the other metabolites (3-HKyn, PA, QA) were found to have any activity as agonists or antagonists; IL-22 expression by CD4+ T cells (Th22 differentiation) [2]: leads to the expansion of a population of cells expression the cytokine IL-22; IL-22 expression by CD4+ T cells (Th22 differentiation) ([2]; listed as 3-HKA): able to promote the differentiation of Th22 cells
